20 compounds from patent US10898481B2 (priority 2018, dated 2021) can be followed below.

For test [1], the target named is hADORA1/CHO (hA1 expressing) cells (Homo sapiens (Human), UniProt P30542). As to the kind of experiment: cell-based. To be noted: 10 μM adenosine.
In a further test the target is mA2a/CHO (Mus musculus (Mouse), UniProt Q60613). As to the kind of experiment: cAMP inhibition assay in mA2a/CHO cells, 10 μM adenosine.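 Further: compounds preincubated 30 min at 37 °C before the adenosine challenge, then 30 min further stimulation, readout after 60 min detection reagent incubation at room temperature in 384-well plates.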 In kind it is cell-based.
The target in a further test is hA2b/CHO (Homo sapiens (Human), UniProt P29275). As to the kind of experiment: cAMP inhibition assay in hA2b/CHO cells, 10 μM adenosine.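 Further: cells exposed to compound 30 min at 37 °C, then stimulated with adenosine a further 30 min, cAMP read after 60 min at room temperature.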 In kind it is cell-based.
The next test addresses hA2a/CHO (Homo sapiens (Human), UniProt P29274). In words: cAMP inhibition assay in hA2a/CHO cells, 10 μM adenosine.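 Further: compounds added to cells 30 min ahead of adenosine, then a further 30 min at 37 °C with adenosine before cAMP detection.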 In kind it is cell-based.
[2] abbreviates: FLIPR inhibition, read-out: cAMP & FLIPR IC50 (nM) hA1.
Where [3] appears, read: read-out: cAMP & FLIPR IC50 (nM) mA2a.
Where [4] appears, read: read-out: cAMP & FLIPR IC50 (nM) hA2b.
The mark [5] stands for this setting: read-out: cAMP & FLIPR IC50 (nM) hA2a.

Where two headings read alike, the source gives them in different places.

Sequence of hADORA1/CHO (hA1 expressing) cells (P30542 whole entry): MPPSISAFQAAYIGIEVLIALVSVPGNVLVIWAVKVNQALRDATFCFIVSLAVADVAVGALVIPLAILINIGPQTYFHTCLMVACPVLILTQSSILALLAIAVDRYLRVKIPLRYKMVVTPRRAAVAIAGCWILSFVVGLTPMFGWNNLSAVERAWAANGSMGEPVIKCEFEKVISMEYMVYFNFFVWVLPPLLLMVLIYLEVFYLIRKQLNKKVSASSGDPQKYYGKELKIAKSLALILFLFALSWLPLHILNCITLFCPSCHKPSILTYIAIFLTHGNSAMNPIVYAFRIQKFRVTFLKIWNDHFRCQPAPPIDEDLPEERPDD
Sequence of mA2a/CHO (Q60613 whole entry): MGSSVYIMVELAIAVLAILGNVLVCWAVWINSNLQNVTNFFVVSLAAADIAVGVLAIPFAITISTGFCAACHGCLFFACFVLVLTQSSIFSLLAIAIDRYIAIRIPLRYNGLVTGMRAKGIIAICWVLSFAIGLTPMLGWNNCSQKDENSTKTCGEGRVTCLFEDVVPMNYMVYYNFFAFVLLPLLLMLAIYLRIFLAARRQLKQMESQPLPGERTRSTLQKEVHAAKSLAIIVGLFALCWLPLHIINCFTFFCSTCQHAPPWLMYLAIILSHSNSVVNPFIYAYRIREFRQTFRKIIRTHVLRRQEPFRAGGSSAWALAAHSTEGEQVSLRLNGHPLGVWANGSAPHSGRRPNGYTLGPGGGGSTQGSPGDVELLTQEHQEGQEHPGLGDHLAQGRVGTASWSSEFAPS
Sequence of hA2b/CHO (P29275 whole entry): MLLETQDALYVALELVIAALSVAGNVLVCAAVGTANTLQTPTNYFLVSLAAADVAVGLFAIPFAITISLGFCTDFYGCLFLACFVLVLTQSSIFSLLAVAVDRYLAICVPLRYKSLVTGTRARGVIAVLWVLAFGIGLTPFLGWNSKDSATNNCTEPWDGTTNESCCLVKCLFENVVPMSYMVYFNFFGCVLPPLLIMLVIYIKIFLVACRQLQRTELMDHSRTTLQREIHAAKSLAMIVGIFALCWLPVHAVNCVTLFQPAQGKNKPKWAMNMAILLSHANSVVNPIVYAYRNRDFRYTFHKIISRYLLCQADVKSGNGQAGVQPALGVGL
Sequence of hA2a/CHO (P29274 whole entry): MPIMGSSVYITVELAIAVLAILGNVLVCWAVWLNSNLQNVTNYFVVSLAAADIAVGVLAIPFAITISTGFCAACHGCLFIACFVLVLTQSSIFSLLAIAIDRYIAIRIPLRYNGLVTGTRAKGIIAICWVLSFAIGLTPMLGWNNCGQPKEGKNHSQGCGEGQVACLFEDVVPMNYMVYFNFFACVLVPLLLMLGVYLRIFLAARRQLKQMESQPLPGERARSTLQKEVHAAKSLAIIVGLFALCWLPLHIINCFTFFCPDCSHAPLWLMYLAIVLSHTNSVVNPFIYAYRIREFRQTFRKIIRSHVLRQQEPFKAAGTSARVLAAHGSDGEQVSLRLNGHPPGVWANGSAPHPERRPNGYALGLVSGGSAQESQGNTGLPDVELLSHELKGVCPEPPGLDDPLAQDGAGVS
Description for hA2a/CHO: (§1) hA2a/CHO, hA2b/CHO, hA3/CHO and mA2a/CHO (Genscript) were plated at 5×10^3 cells/well into 384-well polystyrene plates at the day of experiment. Compounds were pre-incubated with cells for 30 min at 37° C., 5% CO2. Then 10 μM adenosine was added to the cells and incubated for 30 min at 37° C., 5% CO2. Detection reagent (CISBIO) was added and the plates were incubated for 60 min at room temperature. The signal was captured by Envision.
Description for hA2b/CHO: as §1
Description for mA2a/CHO: as §1

Turning to `COc1cccnc1CNC(=O)c1nc(-c2cc(C)nc(C)c2)c(-c2ccc(F)cc2)nc1N` [Example 71, 3-amino-6-(2,6-dimethylpyridin-4-yl)-5-(4-fluorophenyl)-N-((3-methoxypyridin-2-yl)methyl)pyrazine-2-carboxamide], the concentration for half-maximal inhibition (IC50) was found to be 388 nM in test [1] (setting [2]), 1250 nM on mA2a/CHO (setting [3]), 1940 nM on hA2b/CHO (setting [4]) and 64 nM at hA2a/CHO (setting [5]).

For `Cc1cnc2ccc(-c3nc(C(=O)NCC4CC(=O)N(C)C4)c(N)nc3-c3ncco3)cn12` (single isomer, unassigned; isomer 1) [Example 213, 3-amino-N-((1-methyl-5-oxopyrrolidin-3-yl)methyl)-6-(3-methylimidazo[1,2-ajpyridin-6-yl)-5-(oxazol-2-yl)pyrazine-2-carboxamide (isomer 1)], the IC50 in test [1] (setting [2]) turned out to be 505 nM; at mA2a/CHO (setting [3]), 54 nM; at hA2b/CHO (setting [4]), 2530 nM; at hA2a/CHO (setting [5]), 22 nM.

Regarding `Cc1cnc2ccc(-c3nc(C(=O)N[C@@H]4CCCOC4)c(N)nc3-c3ncco3)cn12` (single isomer, unassigned; isomer 2) [Example 164, 3-amino-6-(3-methylimidazo[1,2-a]pyridin-6-yl)-5-(oxazol-2-yl)-N-(tetrahydro-2H-pyran-3-yl)pyrazine-2-carboxamide (isomer 2)], the IC50 in test [1] (setting [2]) was > 10000 nM; on mA2a/CHO (setting [3]), 12.7 nM; at hA2b/CHO (setting [4]) it was 479 nM; at hA2a/CHO (setting [5]), 0.94 nM.

`Cc1cnc2ccc(-c3nc(C(=O)NCCN4CCCC4=O)c(N)nc3-c3ncco3)cn12` [Example 208, 3-amino-6-(3-methylimidazo[1,2-a]pyridin-6-yl)-5-(oxazol-2-yl)-N-(2-(2-oxopyrrolidin-1-yl)ethyl)pyrazine-2-carboxamide]: the IC50 in test [1] (setting [2]) turned out to be 9540 nM; at mA2a/CHO (setting [3]), 19 nM; at hA2b/CHO (setting [4]), 1230 nM; at hA2a/CHO (setting [5]), 8.9 nM.

In the case of `CN(C)CCOc1cccnc1CNC(=O)c1nc(-c2ccc3ncn(C)c3c2)c(-c2ccc(F)cc2)nc1N` [Example 116, 3-amino-N-([3-[2-(dimethylamino)ethoxy]pyridin-2-yl]methyl)-5-(4-fluorophenyl)-6-(1-methyl-1H-1,3-benzodiazol-6-yl)pyrazine-2-carboxamide], the IC50 came to 61 nM in test [1] (cAMP & FLIPR IC50 (nM) hA1, FLIPR inhibition); 17 nM on mA2a/CHO (cAMP & FLIPR IC50 (nM) mA2a); 6020 nM on hA2b/CHO (cAMP & FLIPR IC50 (nM) hA2b); 9.6 nM against hA2a/CHO (cAMP & FLIPR IC50 (nM) hA2a).

On to `COc1ccccc1C(=O)NCc1nc(-c2cc(C)nc(C)c2)c(-c2ccc(F)cc2)nc1N` [Example 86, N-((3-amino-6-(2,6-dimethylpyridin-4-yl)-5-(4-fluorophenyl)pyrazin-2-yl)methyl)-2-methoxybenzamide], for which the IC50 turned out to be 539 nM in test [1] (setting [2]), 192 nM at mA2a/CHO (setting [3]), 7830 nM at hA2b/CHO (setting [4]) and 5 nM at hA2a/CHO (setting [5]).

As to `CP(C)(=O)c1cccc(F)c1CNC(=O)c1nc(-c2ccc3nccn3c2)c(-c2ncco2)nc1N` [Example 96, 3-amino-N-[[2-(dimethylphosphoryl)-6-fluorophenyl]methyl]-6-[imidazo[1,2-a]pyridin-6-yl]-5-(1,3-oxazol-2-yl)pyrazine-2-carboxamide], the IC50 amounted to 136 nM in test [1] (setting [2]), 7.5 nM on mA2a/CHO (setting [3]), 164 nM on hA2b/CHO (setting [4]) and 2.5 nM on hA2a/CHO (setting [5]).

On to `CCc1cnn2ccc(-c3nc(C(=O)NC[C@@H]4CCCN4C)c(N)nc3-c3ncco3)cc12` [Example 129, (S)-3-amino-6-(3-ethylpyrazolo[1,5-a]pyridin-5-yl)-N-((1-methylpyrrolidin-2-yl)methyl)-5-(oxazol-2-yl)pyrazine-2-carboxamide], for which the IC50 in test [1] (setting [2]) was 10000 nM; on mA2a/CHO (setting [3]), 944 nM; on hA2b/CHO (setting [4]) it was ≥ 10000 nM; at hA2a/CHO (setting [5]) it was 140 nM.

As to `CCNC(=O)c1nc(-c2ccc3ncc(C)n3c2)c(-c2ncco2)nc1N` [Example 132, 3-amino-N-ethyl-6-(3-methylimidazo [1,2-a]pyridin-6-yl)-5-(oxazol-2-yl) pyrazine-2-carboxamide], the IC50 in test [1] (setting [2]) is 10000 nM; at mA2a/CHO (setting [3]), 65 nM; on hA2b/CHO (setting [4]) it was 258 nM; at hA2a/CHO (setting [5]), 13 nM.

`Cn1cc(-c2nc(C(=O)NCc3c(F)cccc3P(C)(C)=O)c(N)nc2-c2ncco2)ccc1=O` [Example 97, 3-amino-N-(2-(dimethylphosphoryl)-6-fluorobenzyl)-6-(1-methyl-6-oxo-1,6-dihydropyridin-3-yl)-5-(oxazol-2-yl) pyrazine-2-carboxamide]: the IC50 worked out at 482 nM in test [1] (setting [2]), 40 nM at mA2a/CHO (setting [3]), 4880 nM at hA2b/CHO (setting [4]) and 50 nM on hA2a/CHO (setting [5]).

As to `Cc1ccc(-c2nc(N)c(CNC(=O)c3c(F)cccc3F)nc2-c2ccc(=O)n(C)c2)o1` [Example 4, N-((3-amino-6-(1-methyl-6-oxo-1,6-dihydropyridin-3-yl)-5-(5-methylfuran-2-yl)pyrazin-2-yl)methyl)-2,6-difluorobenzamide], the IC50 in test [1] (setting [2]) turned out to be 18 nM; on mA2a/CHO (setting [3]) it was 43 nM; at hA2b/CHO (setting [4]), 1220 nM; at hA2a/CHO (setting [5]), 15 nM.

Regarding `Cc1cnc2ccc(-c3nc(C(=O)NCCn4cccn4)c(N)nc3-c3ncco3)cn12` [Example 158, N-(2-(1H-pyrazol-1-yl)ethyl)-3-amino-6-(3-methylimidazo[1,2-a]pyridin-6-yl)-5-(oxazol-2-yl)pyrazine-2-carboxamide], the IC50 in test [1] (setting [2]) turned out to be 756 nM; at mA2a/CHO (setting [3]), 3.46 nM; at hA2b/CHO (setting [4]), 167 nM; on hA2a/CHO (setting [5]), 1.27 nM.

As for `Cc1cccc(CNC(=O)c2nc(-c3ccc(=O)n(C)c3)c(-c3ncco3)nc2N)n1` [Example 18, 3-amino-6-(1-methyl-6-oxo-1,6-dihydropyridin-3-yl)-N-[(6-methylpyridin-2-yl)methyl]-5-(1,3-oxazol-2-yl)pyrazine-2-carboxamide], the IC50 in test [1] (setting [2]) was 1150 nM; on mA2a/CHO (setting [3]) it was 116 nM; at hA2b/CHO (setting [4]) it was ≥ 10000 nM; at hA2a/CHO (setting [5]), 105 nM.

For the compound `Cc1cnc2ccc(-c3nc(C(=O)NC[C@@H]4CCCO4)c(N)nc3-n3nccn3)cn12` [Example 226, (S)-3-amino-6-(3-methylimidazo[1,2-a]pyridin-6-yl)-N-((tetrahydrofuran-2-yl)methyl)-5-(2H-1,2,3-triazol-2-yl) pyrazine-2-carboxamide], the IC50 in test [1] (setting [2]) came to 947 nM; on mA2a/CHO (setting [3]), 30 nM; at hA2b/CHO (setting [4]), 177 nM; at hA2a/CHO (setting [5]) it was 3 nM.

For `Cn1cc(-c2nc(C(=O)NCc3c(F)cccc3N3CCOCC3)c(N)nc2-c2ncco2)ccc1=O` [Example 39, 3-amino-N-[[2-fluoro-6-(morpholin-4-yl)phenyl]methyl]-6-(1-methyl-6-oxo-1,6-dihydropyridin-3-yl)-5-(1,3-oxazol-2-yl)pyrazine-2-carboxamide], the IC50 in test [1] (setting [2]) is 32 nM; at mA2a/CHO (setting [3]), 3.3 nM; at hA2b/CHO (setting [4]), 2120 nM; at hA2a/CHO (setting [5]), 7.8 nM.

Consider `Cn1cc(-c2nc(CNC(=O)c3ncccc3OC(F)F)c(N)nc2-c2ccc(F)cc2)ccc1=O` [Example 21, N-[[3-amino-5-(4-fluorophenyl)-6-(1-methyl-6-oxo-1,6-dihydropyridin-3-yl)pyrazin-2-yl]methyl]-3-(difluoromethoxy)pyridine-2-carboxamide], for which the IC50 in test [1] (setting [2]) worked out at 18 nM; at mA2a/CHO (setting [3]), 73 nM; at hA2b/CHO (setting [4]), 638 nM; at hA2a/CHO (setting [5]), 98 nM.

For the compound `Cc1cnc2ccc(-c3nc(C(=O)NCc4cccc(N[C@H]5C[C@H](N(C)C)C5)n4)c(N)nc3-c3ncco3)cn12` [Cmpd. 227, Trans-3-amino-6-[3-methyl-imidazo[1,2-a]pyridin-6-yl]-5-(1,3-oxazol-2-yl)-N-[(6-[[3-(dimethylamino)cyclobutyl]amino]pyridin-2-yl)methyl]pyrazine-2-carboxamide], the IC50 in test [1] (setting [2]) came to 781 nM; at mA2a/CHO (setting [3]) it was 24 nM; on hA2b/CHO (setting [4]), 99 nM; on hA2a/CHO (setting [5]) it was 4.4 nM.

For `COC(C)CNC(=O)c1nc(-c2ccc3ncc(C)n3c2)c(-c2ncco2)nc1N` (single isomer, unassigned; isomer 2) [Example 241, 3-amino-N-(2-methoxypropyl)-6-(3-methylimidazo[1,2-a]pyridin-6-yl)-5-(oxazol-2-yl)pyrazine-2-carboxamide (isomer 2)], the IC50 in test [1] (setting [2]) was found to be 272 nM; at mA2a/CHO (setting [3]), 27 nM; on hA2b/CHO (setting [4]) it was 205 nM; on hA2a/CHO (setting [5]), 4 nM.

Take `Cc1cnc2ccc(-c3nc(C(=O)NCCS(C)(=O)=O)c(N)nc3-c3ccc(F)cc3)cn12` [Example 150, 3-amino-5-(4-fluorophenyl)-6-(3-methylimidazo[1,2-a]pyridin-6-yl)-N-(2-(methylsulfonyl)ethyl)pyrazine-2-carboxamide]: the IC50 in test [1] (setting [2]) was found to be 26 nM; on mA2a/CHO (setting [3]), 6.5 nM; on hA2b/CHO (setting [4]) it was 108 nM; at hA2a/CHO (setting [5]), 3.4 nM.

For `Cc1cnc2ccc(-c3nc(C(=O)NC[C@H]4CCCO4)c(N)nc3-n3nccn3)cn12` [Cmpd. 229, 3-amino-6-[3-methylimidazo[1,2-a]pyridin-6-yl]-N-[[(2R)-oxolan-2-yl]methyl]-5-(2H-1,2,3-triazol-2-yl)pyrazine-2-carboxamide], the IC50 in test [1] (setting [2]) turned out to be 1650 nM; at mA2a/CHO (setting [3]), 19 nM; at hA2b/CHO (setting [4]), 157 nM; on hA2a/CHO (setting [5]), 2.4 nM.

A word on the IC50: it is the concentration that inhibits the measured activity by half.
